These are literature values, as cited in patent US20180255771A1, “CONTROLLED GAS PHASE RELEASE OF NON AQUEOUS PHASE LIQUID ESSENTIAL OIL COMPOUNDS FOR AROMATHERAPY, FRAGRANCE AND INSECTICIDAL ACTIVITY” (priority 2015, published 2018).

In data set [1] the test system is Ixodes ricinus. The conditions noted are these: for repellency to Ixodes ricinus compared with DEET: 10 ug dose; for repellency to Ixodes ricinus: 1 ug dose.
For data set [2] the following is noted: at 20° C.
For data set [3] the following is noted: USEPA conclusion.

On to `C=CCc1cc(OC)c(O)c(OC)c1` [4-Allyl-2,6-dimethoxyphenol], for which the “repellency to Ixodes ricinus compared with DEET” value (shortened to “repellency … compared with DEET”) in data set [1] is recorded as “as repellent as DEET”.

Take `CCc1ccc(O)c(O)c1` [4-Ethyl-1,2-benzenediol]: in data set [1], the “repellency to Ixodes ricinus” value is given as “statistically significantly more repellent” and the “repellency … compared with DEET” value was “as repellent as DEET”.

For `Cc1ccc(O)c(O)c1` [4-Methyl-1,2-benzenediol], the “repellency … compared with DEET” value in data set [1] is recorded as “as repellent as DEET”.

For the molecule `CCN(CC)C(=O)c1cccc(C)c1` [DEET, N,N-diethyl-meta-toluamide], the vapor pressure in data set [2] was 0.0056 mm Hg. For the same molecule, in data set [1], the “repellency to Ixodes ricinus” value is given as “not reported to be effective”. Besides, in data set [3], the “risks to humans or the environment” value is on record as “will generally not cause unreasonable risks”. Turning to `C=CCc1ccc(O)c(OC)c1` [eugenol], the “repelling ticks (Ixodes ricinus) compared with DEET” value in data set [1] (100 ug dose, DEET at a 100 ug dose) is on record as “as effective at repelling ticks”.
